Data on one substance can be found in US8106004B2, “Methods of inhibiting tumor cell aggressiveness using the microenvironment of human embryonic stem cells” (Children's Memorial Hospital, priority 2006, dated 2012).

In this data set the test system is MDA-MB-231 breast carcinoma cells. The data set can be described thus: In vivo tumor formation, orthotopic mouse model, MDA-MB-231 breast carcinoma cells. Particulars: 500,000 MDA-MB-231 cells treated with Morpholino before injection. From the text: (A) In vivo tumor formation in a mouse injected with MDA-MB-231 cells pre-exposed for 3 days to either a control matrix (Matrigel) or a matrix conditioned by hESCs (H9 CMTX) (n=10) (B) C81-61 cells, transfected with either an empty vector or a Nodal expression construct (n=5), and (C) MDA-MB-231 cells treated with either MO^Control or MO^Nodal (n=10). […] (D) The ratio of tumor cell proliferation to apoptosis for C8161 and MDA-MB-231 derived tumors, determined by immunohistochemical staining for Ki67 and terminal deoxynucleotidyl transferase biotin-dUTP nick-end labeling (TUNEL). Prior to injection into a mouse, C8161 and MDA-MB-231 cells were cultured for 3 days on control or hESC conditioned (H9 CMTX) matrices, or treated with MO^Nodal to knock down Nodal expression. […] Proliferation is indicated by Ki67 staining and apoptotic nuclei were detected with confocal microscopy as red staining localized to the nuclei of apoptotic C8161 or MDA-MB-231 cells. […]
The effects of the hESC microenvironment on the in vivo tumorigenicity of melanoma and breast carcinoma cells were examined using orthotopic mouse models. […] The […] C81-61 melanoma cell line was unable to form palpable tumors when 500,000 cells were injected, and using gross observation and histology 5.5 weeks after inoculation, these tumor cells could not be detected at the site of injection. […]

Take “MO^Nodal: FITC-conjugated anti-sense Morpholino to Nodal, 5′-AAGCAGCACCTCCAGCCCTTATATC-3′ [SEQ ID NO: 20] (all phosphorodiamidate morpholino (PMO); FITC conjugated, position not given here)”: the tumorigenicity entry was “significant reduction”.
